Measurements published in US8835458B2 (Hanmi Science Co., Ltd, priority 2010, dated 2014).
Like-named read-outs stand apart in the source and are kept apart here.

Tests used:
[1] = system: caspase 9; assay: Evaluation of caspase activity (Caspase-Glo 9 Assay Kit); format: cell-based; settings: MDA-MB-231 cells, 16 hours, compared to untreated MDA-MB-231 cells; 0.5, 1, 5 μM tested
Description: (§1) MDA-MB-231 breast cancer cells (ATCC #HTB-26) were plated in 96-well plates at a density of 1.0 1.5×10^4 cells/well. […] Then, media were removed and the cells were washed two times with PBS at 4° C. The cells were treated with a solution of the analysis samples and media (1:1) in an amount of 140 μL/well using Caspase-GloTM 9 Assay Kit (Cat#. […]; Promega, USA) and Caspase-GloTM 3/7 Assay Kit (Cat#. […]; Promega, USA). After the cells were incubated at 37° C. for 2 hours, luminescence was measured using InfiniteTM M1000 multi reader (Tecan). […] The values were represented as “***” for six fold or more, “**” for 4 fold to below 6 fold, and “*” for 1 fold to below 4 fold, as compared to that of untreated, normal MDA-MB-231 breast cancer cell lines.

[2] = system: caspase 3/7; assay: Evaluation of caspase activity (Caspase-Glo 3/7 Assay Kit); format: cell-based; settings: MDA-MB-231 cells, 12 hours, compared to untreated MDA-MB-231 cells; 0.5, 1, 5 μM tested
Description: as §1

[3] = Toxicity to normal cells (SRB); format: cell-based, human; settings: human, Hs27 fibroblasts (normal cell line)
Procedure, shortened: (§2)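 Cells seeded at 3,000˜5,000 cells/100 μL, grown 24 h at 37° C (MDA-MB-231 under atmospheric conditions), then exposed to 10 μM˜0.1 nM compound. MDA-MB-231 cultured 120 h, read by MTS at 490 nm; fibroblasts cultured 72 h, TCA-fixed, SRB-stained, read at 540 nm. GI50 from growth relative to untreated and medium-only cells.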

[4] = system: MDA-MB-231 breast cancer cell lines; assay: Evaluation of inhibition on cell growth (MTS); format: cell-based; settings: Homo sapiens, MDA-MB-231, 120 hours
Procedure, shortened: as §2

[5] = Toxicity to normal cells (SRB); format: cell-based, mouse; settings: mouse, Balb/c3t3 fibroblasts (normal cell line), read-out: BalB/C (GI50)
Procedure, shortened: as §2

| SMILES | GI50 [4] [µM] | Caspase-9 [1] | Caspase-3 [2] | GI50 at 72 h [3] [µM] | GI50 at 72 h [5] [µM] |
| --- | --- | --- | --- | --- | --- |
| CN[C@@H](C)C(=O)N[C@H](C(=O)N1CCC[C@H]1C(=O)Nc1cc2c(Nc3cccc(Cl)c3F)ncnc2cc1OCCOC)C(C)(C)C.Cl [Example 2, (S)—N-(4-(3-chloro-2-fluorophenylamino)-7-(2-methoxyethoxy)quinazolin-6-yl)-1-((S)-3,3-dimethyl-2-((S)-2-(methylamino)propanamido)butanoyl)pyrrolidine-2-carboxamide hydrochloride] | 0.1 to 1 | * (1 fold to below 4 fold) | ** (4 fold to below 6 fold) | > 10 | > 10 |
| CN[C@@H](C)C(=O)N[C@H](C(=O)N1CCC[C@H]1C(=O)Nc1cc2c(Nc3cccc(Cl)c3F)ncnc2cc1OC)C(C)(C)C.Cl [Example 7] | – | *** (six fold or more) | *** (six fold or more) | – | – |
| CN[C@@H](C)C(=O)N[C@H](C(=O)N1CCC[C@H]1C(=O)Nc1cc2c(Nc3ccccc3)ncnc2cc1OC)C(C)(C)C.Cl [Example 11, (S)—N-(4-phenylamino-7-methoxyquinazolin-6-yl)-1-((S)-3,3-dimethyl-2-((S)-2-(methylamino)propanamido)butanoyl)pyrrolidine-2-carboxamide hydrochloride] | ≤ 0.1 | *** (six fold or more) | *** (six fold or more) | > 10 | > 10 |

More lines, main results first:

| GI50 [4] [µM] | SMILES | Caspase-9 [1] | Caspase-3 [2] | GI50 at 72 h [3] [µM] | GI50 at 72 h [5] [µM] |
| --- | --- | --- | --- | --- | --- |
| ≤ 0.1 | CN[C@@H](C)C(=O)N[C@H](C(=O)N1CCC[C@H]1C(=O)Nc1cc2c(Nc3ccc(F)c(Cl)c3F)ncnc2cc1OC)C(C)(C)C.Cl [Example 1, (S)—N-(4-(3-chloro-2,4-difluorophenylamino)-7-methoxyquinazolin-6-yl)-1-((S)-3,3-dimethyl-2-((S)-2-(methylamino)propanamido)butanoyl)pyrrolidine-2-carboxamide hydrochloride] | *** (six fold or more) | *** (six fold or more) | > 10 | > 10 |
| ≤ 0.1 | CN[C@@H](C)C(=O)N[C@H](C(=O)N1CCC[C@H]1C(=O)Nc1cc2c(Nc3ccc(Cl)c(Cl)c3F)ncnc2cc1OC)C(C)(C)C.Cl [Example 8, (S)—N-(4-(3,4-dichloro-2-fluorophenylamino)-7-methoxyquinazolin-6-yl)-1-((S)-3,3-dimethyl-2-((S)-2-(methylamino)propanamido)butanoyl)pyrrolidine-2-carboxamide hydrochloride] | *** (six fold or more) | *** (six fold or more) | > 10 | > 10 |
| ≤ 0.1 | CN[C@@H](C)C(=O)N[C@H](C(=O)N1CCC[C@H]1C(=O)Nc1cc2c(Nc3ccc(Br)cc3F)ncnc2cc1OC)C(C)(C)C.Cl [Example 9, (S)—N-(4-(4-bromo-2-fluorophenylamino)-7-methoxyquinazolin-6-yl)-1-((S)-3,3-dimethyl-2-((S)-2-(methylamino)propanamido)butanoyl)pyrrolidine-2-carboxamide hydrochloride] | *** (six fold or more) | *** (six fold or more) | > 10 | > 10 |
| ≤ 0.1 | CN[C@@H](C)C(=O)N[C@H](C(=O)N1CCC[C@H]1C(=O)Nc1cc2c(Nc3ccccc3F)ncnc2cc1OC)C(C)(C)C.Cl [Example 10, (S)-1-((S)-3,3-dimethyl-2-((S)-2-(methylamino)propanamido)butanoyl)-N-(4-(2-fluorophenylamino)-7-methoxyquinazolin-6-yl)pyrrolidine-2-carboxamide hydrochloride] | *** (six fold or more) | *** (six fold or more) | > 10 | > 10 |
